The target in assay [1] is Serine/threonine-protein kinase mTOR (Homo sapiens, UniProt P42345). Nature of the assay: Inhibition of mTOR.
A short description of assay [2]: Selectivity index, ratio of IC50 for PI3Kalpha to IC50 for mTOR.
The subject of a further assay is LNCaP. Nature of the assay: Cytotoxicity against human LNCAP cells. The format is functional, cell-based.
Assay [3] addresses Phosphatidylinositol 4,5-bisphosphate 3-kinase catalytic subunit alpha isoform (Homo sapiens, UniProt P42336). Nature of the assay: Inhibition of PI3Kalpha.

Sequence of Phosphatidylinositol 4,5-bisphosphate 3-kinase catalytic subunit alpha isoform (P42336 whole entry, canonical isoform): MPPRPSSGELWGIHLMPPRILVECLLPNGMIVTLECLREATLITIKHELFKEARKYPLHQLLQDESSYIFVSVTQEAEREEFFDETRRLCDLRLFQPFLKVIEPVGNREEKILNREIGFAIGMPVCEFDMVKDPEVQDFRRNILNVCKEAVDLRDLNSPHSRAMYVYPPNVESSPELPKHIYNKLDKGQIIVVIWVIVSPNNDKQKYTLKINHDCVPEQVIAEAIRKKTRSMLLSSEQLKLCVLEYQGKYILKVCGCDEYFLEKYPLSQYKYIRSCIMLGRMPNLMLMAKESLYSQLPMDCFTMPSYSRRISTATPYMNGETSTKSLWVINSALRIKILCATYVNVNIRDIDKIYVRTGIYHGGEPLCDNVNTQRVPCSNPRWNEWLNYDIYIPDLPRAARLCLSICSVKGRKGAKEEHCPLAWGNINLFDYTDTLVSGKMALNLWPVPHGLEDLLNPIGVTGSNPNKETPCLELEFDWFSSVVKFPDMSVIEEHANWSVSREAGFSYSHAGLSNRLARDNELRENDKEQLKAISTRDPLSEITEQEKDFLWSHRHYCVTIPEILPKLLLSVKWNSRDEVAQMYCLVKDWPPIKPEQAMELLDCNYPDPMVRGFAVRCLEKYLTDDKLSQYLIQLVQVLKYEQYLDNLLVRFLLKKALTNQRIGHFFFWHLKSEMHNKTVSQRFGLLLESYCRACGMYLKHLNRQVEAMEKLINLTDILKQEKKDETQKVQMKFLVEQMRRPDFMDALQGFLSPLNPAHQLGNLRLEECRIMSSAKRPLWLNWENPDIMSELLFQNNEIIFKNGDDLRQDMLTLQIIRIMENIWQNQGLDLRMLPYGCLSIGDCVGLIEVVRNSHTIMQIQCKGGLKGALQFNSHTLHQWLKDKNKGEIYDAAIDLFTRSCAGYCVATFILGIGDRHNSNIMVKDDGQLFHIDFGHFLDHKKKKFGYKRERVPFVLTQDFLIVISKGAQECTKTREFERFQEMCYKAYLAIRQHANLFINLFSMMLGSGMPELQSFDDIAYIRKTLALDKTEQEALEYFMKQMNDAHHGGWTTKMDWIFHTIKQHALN

For the compound `O=C(NCCO)Nc1ccc(-c2nc(N3CC4CCC(C3)O4)c3sccc3n2)cc1`, the IC50 (usually the midpoint of a concentration-inhibition curve) in assay [1] is 0.00034 µM.
Turning to `COC(=O)Nc1ccc(-c2nc(N3CC4CCC(C3)O4)c3sccc3n2)cc1`, the values for the IC50 (in assay [1]; with LNCaP) were 0.011 µM and 1.85 µM, respectively. Also, the Ratio IC50 in assay [2] amounted to 549.
As for `c1cc2cc(-c3nc(N4CC5CCC(C4)O5)c4sccc4n3)ccc2[nH]1`, the Ratio IC50 in assay [2] was 392. Further, the IC50 in the assay on LNCaP is 1.35 µM.
The matching figures for `CN1CCN(Cc2cc3nc(-c4ccc(NC(=O)Nc5ccncc5)cc4)nc(N4CC5CCC(C4)O5)c3s2)CC1`: 23 and 0.2 µM.
On to `CC(=O)Nc1ccc(-c2nc(N3CC4CCC(C3)O4)c3sccc3n2)cc1`, for which the results for the half-inhibitory concentration (IC50) (in assay [1]; with LNCaP) were 0.0265 µM and 1.7 µM, respectively. Moreover, the Ratio IC50 in assay [2] stood at 165.
For `Nc1ccc(-c2nc(N3CC4CCC(C3)O4)c3sccc3n2)cn1` the same measures were 0.035 µM, 1.25 µM and 51.
As for `CS(=O)(=O)N1CCN(Cc2cc3nc(-c4ccc(NC(=O)Nc5ccncc5)cc4)nc(N4CC5CCC(C4)O5)c3s2)CC1`, the Ratio IC50 in assay [2] was 19. Moreover, the IC50 amounted to 0.0083 µM in assay [3] and 0.12 µM in the assay on LNCaP.
`O=C(Nc1ccc(-c2nc(N3CC4CCC(C3)O4)c3sccc3n2)cc1)Nc1cccnc1`: the figures for the IC50 (in assay [1]; in the assay with LNCaP) were 0.00029 µM and 0.027 µM, respectively. Besides, the Ratio IC50 in assay [2] amounted to 410.
On to `Oc1cccc(-c2nc(N3CC4CCC(C3)O4)c3sccc3n2)c1`, for which half-maximal inhibition in assay [1] (IC50) required 0.058 µM.
As for `Oc1cccc(-c2nc(N3CCOCC3)c3sccc3n2)c1`, the concentration for half-maximal inhibition (IC50) in assay [1] turned out to be 0.049 µM; in assay [3] it was 0.041 µM; in the assay with LNCaP, 1.3 µM. In assay [2], the Ratio IC50 was determined as 0.9.
With `CN1CCN(Cc2cc3nc(-c4ccc(NC(=O)NC5CC5)cc4)nc(N4CC5CCC(C4)O5)c3s2)CC1`, the IC50 was 0.016 µM in assay [1] and 0.4 µM with LNCaP. Also, the Ratio IC50 in assay [2] stood at 56.
On to `Nc1ncc(-c2nc(N3CCOCC3)c3sccc3n2)cn1`, for which the IC50 came to 0.061 µM in assay [1], 0.0085 µM in assay [3] and 0.68 µM with LNCaP. For the same compound, in assay [2], the Ratio IC50 was 0.14.
For the compound `CS(=O)(=O)N1CCN(Cc2cc3nc(-c4ccc(NC(=O)Nc5cccnc5)cc4)nc(N4CC5CCC(C4)O5)c3s2)CC1`, the 50% inhibitory concentration (IC50) in assay [1] was found to be 0.0006 µM.
Regarding `CNC(=O)Nc1ccc(-c2nc(N3CC4CCC(C3)O4)c3sccc3n2)cc1`, the values for the IC50 (in assay [1]; in the assay on LNCaP) were 0.0009 µM and 0.085 µM, respectively. The Ratio IC50 in assay [2] was 492.
`CCNC(=O)Nc1ccc(-c2nc(N3CC4CCC(C3)O4)c3sccc3n2)cc1` yielded an IC50 in assay [1] of 0.0007 µM.
Still for that read-out and setting: with `Oc1ccc(-c2nc(N3CC4CCC(C3)O4)c3sccc3n2)cc1` the figure was 0.032 µM; with `O=C(Nc1ccccc1)Nc1ccc(-c2nc(N3CC4CCC(C3)O4)c3sccc3n2)cc1`, 0.00125 µM.
In the case of `O=C(NCCF)Nc1ccc(-c2nc(N3CC4CCC(C3)O4)c3sccc3n2)cc1`, the IC50 in assay [1] stood at 0.0007 µM; in the assay with LNCaP, 0.087 µM. Further, the Ratio IC50 in assay [2] amounted to 1110.
For `Nc1ncc(-c2nc(N3CC4CCC(C3)O4)c3sccc3n2)cn1`, the IC50 in assay [1] is 0.057 µM; with LNCaP it was 1.2 µM. In assay [2], the Ratio IC50 worked out at 4.4.
On to `CN1CCN(Cc2cc3nc(-c4ccc(NC(=O)Nc5cccnc5)cc4)nc(N4CC5CCC(C4)O5)c3s2)CC1`, for which the Ratio IC50 in assay [2] was found to be 31. Further, the IC50 in the assay on LNCaP came to 0.148 µM.
On to `Nc1ccc(-c2nc(N3CC4CCC(C3)O4)c3sccc3n2)cc1`, for which the IC50 in assay [3] is > 10 µM.
Regarding `O=C(Nc1ccc(-c2nc(N3CC4CCC(C3)O4)c3sccc3n2)cc1)NC1CC1`, the IC50 worked out at 0.00068 µM in assay [1] and 0.04 µM with LNCaP. In addition, in assay [2], the Ratio IC50 stood at 2010.
In the case of `CS(=O)(=O)N1CCN(Cc2cc3nc(-c4ccc(NC(=O)NC5CC5)cc4)nc(N4CC5CCC(C4)O5)c3s2)CC1`, the IC50 in assay [1] was found to be 0.001 µM; with LNCaP it was 0.032 µM. Also, the Ratio IC50 in assay [2] came to 176.
`CNC(=O)Nc1ccc(-c2nc(N3CC4CCC(C3)O4)c3sc(CN4CCN(C)CC4)cc3n2)cc1` returned an IC50 in assay [1] of 0.02 µM.
As for `CNC(=O)Nc1ccc(-c2nc(N3CC4CCC(C3)O4)c3sc(CN4CCN(S(C)(=O)=O)CC4)cc3n2)cc1`, the Ratio IC50 in assay [2] was 33. Further, the IC50 in the assay with LNCaP is 0.12 µM.
On to `O=C(Nc1ccncc1)Nc1ccc(-c2nc(N3CC4CCC(C3)O4)c3sccc3n2)cc1`, for which the IC50 in assay [1] came to 0.00044 µM; in the assay with LNCaP, 0.01 µM. The Ratio IC50 in assay [2] was found to be 182.

The values above are taken from ChEMBL document CHEMBL1153098, “Discovery of 2-arylthieno[3,2-d]pyrimidines containing 8-oxa-3-azabi-cyclo[3.2.1]octane in the 4-position as potent inhibitors of mTOR with selectivity over PI3K” (Bioorg Med Chem Lett, 2010).
